Earlier results, collected in patent US9278076B2, “Chronotherapeutic dosage forms” (Endo Pharmaceuticals Inc., priority 2003, dated 2016).

Conditions: glucocorticoid equivalence chart

| Structure (SMILES) | Approximate Equivalent Dose [mg] |
| --- | --- |
| C[C@]12CCC(=O)C=C1CC[C@@H]1[C@@H]2C(=O)C[C@@]2(C)[C@H]1CC[C@]2(O)C(=O)CO [Cortisone] | 25 |
| C[C@]12CCC(=O)C=C1CC[C@@H]1[C@@H]2[C@@H](O)C[C@@]2(C)[C@H]1CC[C@]2(O)C(=O)CO [Hydrocortisone] | 20 |
| C[C@]12C=CC(=O)C=C1CC[C@@H]1[C@@H]2[C@@H](O)C[C@@]2(C)[C@H]1CC[C@]2(O)C(=O)CO [Prednisolone] | 5 |
| C[C@]12C=CC(=O)C=C1CC[C@H]1[C@@H]3C[C@@H](O)[C@](O)(C(=O)CO)[C@@]3(C)C[C@H](O)[C@@]12F [Triamcinolone] | 4 |
